Measurements: PMC10997755, “Discovery of a small-molecule inhibitor that traps Polθ on DNA and synergizes with PARP inhibitors” (Nature Communications, 2024)
Values joined by “and” are separate entries in the source; they are usually repeats but may differ in a detail not shown here. Identical values can stand only once. “Also recorded” adds a separate entry of the source.

What was measured:
Type in all cases: biochemical
EcoRI = target: T1, EcoRI (Escherichia coli, UniProt P00642); experiment: EcoRI cleavage control in the absence of Polθ-pol; conditions: for cleavage %: EcoRI; for % cleavage: compound 10 µM
T1 construct: purchased New England Biolabs
Method: (§1) EcoRI and KpnI endonucleases assay: 25 nM 5’-^32P radiolabeled primer-template DNA Sc15-EcoRI (5’-^32P LM3-EcoRI/LM4-EcoRI) or Sc19-KpnI (5’-^32P LM11-Kpn/LM12-Kpn) in reaction buffer (25 mM Tris-HCl pH 7.5, 10 mM MgCl2, 10% glycerol, 0.1 mg/mL BSA, 0,01% igepal, 1 mM DTT) were incubated in the presence or in the absence of 50 nM Polθ-pol, 100 μM ddCTP, and 10 μM inhibitors, as indicated, for 5 min at room temperature. Next, 0.08 U/μL EcoRI or KpnI together with 500 nM “trapping” DNA Sc14 (RP559/RP702) were added and incubated for further 0–40 min at 30 °C as indicated. 10 nM PolθΔcen and FL-Polθ and 25 nM Sc15-EcoRI and Sc19-Kpn were probed with 0.04 U/μL EcoRI or KpnI (both from New England Biolabs) using the same conditions. Reactions were stopped by addition of formamide loading buffer with 50 mM EDTA, resolved in denaturing 20% urea PAAG and analyzed using Typhoon PhosphorImager (GE Amersham). Quantification was done in ImageQuant TL software. All quantified experiments were performed in triplicates and plotted as mean with ± s.d using GraphPad Prism 9 software.

KpnI = target: T2, KpnI (Klebsiella pneumoniae, UniProt P25237); experiment: KpnI cleavage control in the absence of Polθ-pol; conditions: for cleavage %: KpnI; for % cleavage: compound 10 µM
T2 construct: purchased New England Biolabs
T2 sequence (P25237 1-218): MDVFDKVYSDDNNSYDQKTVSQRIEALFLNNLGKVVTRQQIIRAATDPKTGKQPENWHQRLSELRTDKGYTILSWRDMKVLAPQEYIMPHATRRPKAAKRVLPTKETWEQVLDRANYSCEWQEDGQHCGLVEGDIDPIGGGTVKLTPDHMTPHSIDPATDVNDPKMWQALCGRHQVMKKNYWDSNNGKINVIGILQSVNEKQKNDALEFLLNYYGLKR
Method: as §1

Polθ-pol:DNA/DNA complex [1] = target: T3, Polθ-pol:DNA/DNA complex (Homo sapiens, UniProt O75417); experiment: EcoRI endonuclease protection assay; conditions: for EcoRI cleavage %, ave / EcoRI cleavage %, replicates #1-#3: Eco+pol+ddC+RTx compound; for cleavage normalized to 100%, i: 14 nt i; for cleavage normalized to 100%, i+1: 15 nt i+1; for i (%) (14 nt), replicates #1-#3 / i (%), normalized to 100%, ave(%) / i+1 (%) (15 nt), replicates #1-#3 / i+1 (%) normalized to 100%, ave(%): pol+ddC+compound;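 on i+1 (%) (15 nt), replicates #1-#3: i+1 is one-nucleotide extended DNA within post-catalytic complexes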
T3 construct: purified recombinant human Polθ-pol (comprising amino acid residues 1792–2590); made in house
T3 sequence (O75417 1792-2590): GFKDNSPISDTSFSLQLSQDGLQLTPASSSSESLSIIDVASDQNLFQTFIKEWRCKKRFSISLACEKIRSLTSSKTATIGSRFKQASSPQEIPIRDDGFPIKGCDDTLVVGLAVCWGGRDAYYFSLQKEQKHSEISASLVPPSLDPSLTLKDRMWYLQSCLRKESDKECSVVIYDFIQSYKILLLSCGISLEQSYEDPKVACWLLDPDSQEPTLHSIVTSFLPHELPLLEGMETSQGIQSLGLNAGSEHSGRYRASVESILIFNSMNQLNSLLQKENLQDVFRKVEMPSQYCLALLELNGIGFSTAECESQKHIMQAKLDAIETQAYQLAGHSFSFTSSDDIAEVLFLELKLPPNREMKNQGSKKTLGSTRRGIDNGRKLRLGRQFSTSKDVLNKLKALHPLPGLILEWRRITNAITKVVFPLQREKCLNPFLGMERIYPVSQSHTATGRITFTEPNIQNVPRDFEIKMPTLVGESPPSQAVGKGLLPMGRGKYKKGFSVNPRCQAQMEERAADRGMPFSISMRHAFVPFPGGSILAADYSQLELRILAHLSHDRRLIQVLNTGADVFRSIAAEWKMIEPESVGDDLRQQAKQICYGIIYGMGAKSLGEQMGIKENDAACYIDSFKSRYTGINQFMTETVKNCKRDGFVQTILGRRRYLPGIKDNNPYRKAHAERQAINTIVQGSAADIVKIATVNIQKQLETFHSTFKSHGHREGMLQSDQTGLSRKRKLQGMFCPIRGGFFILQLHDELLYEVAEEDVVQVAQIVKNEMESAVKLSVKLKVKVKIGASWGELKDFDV
Method: as §1

Polθ-pol:DNA/DNA complex [2] = target: T3, Polθ-pol:DNA/DNA complex; experiment: KpnI endonuclease protection assay; conditions: for i (%), normalized to 100%, ave(%) / i (%), replicates: 14 nt i; for i+1 (%) normalized to 100%, ave(%) / i+1 (%), replicates: 15 nt i+1
Method: as §1

T1 sequence (P00642 2-277 limits assumed): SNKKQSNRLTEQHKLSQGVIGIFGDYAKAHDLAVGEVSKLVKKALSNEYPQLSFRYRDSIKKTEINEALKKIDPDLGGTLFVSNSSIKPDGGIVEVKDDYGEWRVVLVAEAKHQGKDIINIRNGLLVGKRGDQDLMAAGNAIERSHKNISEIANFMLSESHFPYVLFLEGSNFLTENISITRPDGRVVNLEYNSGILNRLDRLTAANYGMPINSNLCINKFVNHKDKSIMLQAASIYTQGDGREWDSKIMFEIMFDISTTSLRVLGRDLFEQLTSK

## CN1CCN(c2cc(C(F)(F)F)cc(C(F)(F)F)c2OC(=O)N(C)c2ccc(F)cc2)C1=O [RTx-152]
EcoRI; 3 min
  cleavage %: 27.4%
EcoRI; 6 min
  cleavage %: 49.4%
EcoRI; absence of Polθ-pol
  inhibition of EcoRI activity: resistant to inhibition; also recorded: do not inhibit
EcoRI; cleavage 3 min
  % cleavage: 27%
EcoRI; cleavage 6 min
  % cleavage: 49%
KpnI; 3 min
  cleavage %: 21.3%
KpnI; 6 min
  cleavage %: 35.8%
KpnI; absence of Polθ-pol
  inhibition of KpnI activity: resistant to inhibition
KpnI; cleavage 3 min
  % cleavage: 21%
KpnI; cleavage 6 min
  % cleavage: 36%
Polθ-pol:DNA/DNA complex [1]; 10 μM inhibitor, ddCTP
  suppression of EcoRI cleavage: strong suppression of endonuclease cleavage
  time Polθ-pol is trapped on DNA/DNA (EcoRI cleavage suppressed): > 40 min
Polθ-pol:DNA/DNA complex [1]; 2.5min
  EcoRI cleavage %, ave: 2.1%
  EcoRI cleavage %, replicates #1-#3: 3.0% and 2.0% and 1.2%
  i (%) (14 nt), replicates #1-#3: 25.8% and 27.6% and 28.2%
  i (%), normalized to 100%, ave(%): 100.0%
  i+1 (%) (15 nt), replicates #1-#3: 59.7% and 57.2% and 58.7%
  i+1 (%) normalized to 100%, ave(%): 100.0%
Polθ-pol:DNA/DNA complex [1]; 5min
  EcoRI cleavage %, ave: 2.5%
  EcoRI cleavage %, replicates #1-#3: 3.0% (2×) and 1.4%
  i (%) (14 nt), replicates #1-#3: 22.2% and 22.6% and 25.1%
  i (%), normalized to 100%, ave(%): 85.6%
  i+1 (%) (15 nt), replicates #1-#3: 63.6% and 59.1% and 62.1%
  i+1 (%) normalized to 100%, ave(%): 105.2%
Polθ-pol:DNA/DNA complex [1]; 10min
  EcoRI cleavage %, ave: 4.6%
  EcoRI cleavage %, replicates #1-#3: 5.0% (2×) and 3.7%
  i (%) (14 nt), replicates #1-#3: 15.4% and 16.3% and 17.9%
  i (%), normalized to 100%, ave(%): 60.8%
  i+1 (%) (15 nt), replicates #1-#3: 68.8% and 63.1% and 66.7%
  i+1 (%) normalized to 100%, ave(%): 113.1%
Polθ-pol:DNA/DNA complex [1]; pol+ddC+152, 0 min
  EcoRI cleavage %: 0.0%
Polθ-pol:DNA/DNA complex [1]; pol+ddC+152, 5 min
  EcoRI cleavage %: 3.0%
  cleavage normalized to 100%, i: 100.0%
  cleavage normalized to 100%, i+1: 100.0%
Polθ-pol:DNA/DNA complex [1]; pol+ddC+152, 10 min
  EcoRI cleavage %: 3.7%
  cleavage normalized to 100%, i: 75.0%
  cleavage normalized to 100%, i+1: 110.0%
Polθ-pol:DNA/DNA complex [1]; pol+ddC+152, 20 min
  EcoRI cleavage %: 5.7%
  cleavage normalized to 100%, i: 48.0%
  cleavage normalized to 100%, i+1: 119.0%
Polθ-pol:DNA/DNA complex [1]; pol+ddC+152, 40 min
  EcoRI cleavage %: 9.5%
  cleavage normalized to 100%, i: 25.0%
  cleavage normalized to 100%, i+1: 124.0%
Polθ-pol:DNA/DNA complex [2]; Kpn+pol+ddC+RTx152, 2.5min
  KpnI cleavage %, ave: 0.358%
  KpnI cleavage %, replicates: 0.0% and 0.447% and 0.6%
Polθ-pol:DNA/DNA complex [2]; Kpn+pol+ddC+RTx152, 5min
  KpnI cleavage %, ave: 0.665%
  KpnI cleavage %, replicates: 0.321% and 0.8% and 0.9%
Polθ-pol:DNA/DNA complex [2]; Kpn+pol+ddC+RTx152, 10min
  KpnI cleavage %, ave: 2.1%
  KpnI cleavage %, replicates: 1.8% and 2.3% and 2.0%
Polθ-pol:DNA/DNA complex [2]; KpnI
  trapping of post-catalytic complexes, different sequence context: identical trapping
Polθ-pol:DNA/DNA complex [2]; KpnI, pol+ddC+152, 2.5 min
  i (%), normalized to 100%, ave(%): 100.0%
  i (%), replicates: 35.4% and 37.2% and 33.9%
  i+1 (%) normalized to 100%, ave(%): 100.0%
  i+1 (%), replicates: 53.1% and 50.1% and 54.1%
Polθ-pol:DNA/DNA complex [2]; KpnI, pol+ddC+152, 5 min
  i (%), normalized to 100%, ave(%): 85.8%
  i (%), replicates: 30.7% and 32.1% and 28.6%
  i+1 (%) normalized to 100%, ave(%): 107.9%
  i+1 (%), replicates: 57.1% and 52.5% and 60.1%
Polθ-pol:DNA/DNA complex [2]; KpnI, pol+ddC+152, 10 min
  i (%), normalized to 100%, ave(%): 63.7%
  i (%), replicates: 21.4% and 24.5% and 21.9%
  i+1 (%) normalized to 100%, ave(%): 120.8%
  i+1 (%), replicates: 62.6% and 62.1% and 65.2%
